Measured values published in PubChem BioAssay (NCI).
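Compound exposure: 48 hours, 5 concentrations, 96-well plates. TGI is the concentration that stops growth completely.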

Tests used:
Assay in all cases: inhibition of tumour cell growth, NCI panel, 48 h
RPMI-8226 leukemia = system: RPMI-8226 leukemia
SF-539 CNS = system: SF-539 CNS
M14 melanoma = system: M14 melanoma
NCI/ADR-RES ovarian = system: NCI/ADR-RES ovarian
SK-OV-3 ovarian = system: SK-OV-3 ovarian
A549 NSCLC = system: A549 NSCLC
K-562 leukemia = system: K-562 leukemia
SNB-75 CNS = system: SNB-75 CNS
NCI-H23 lung = system: NCI-H23 lung
CCRF-CEM leukemia = system: CCRF-CEM leukemia
MCF7 breast = system: MCF7 breast
MDA-N = system: MDA-N
U251 CNS = system: U251 CNS
SF-268 CNS = system: SF-268 CNS
HOP-62 NSCLC = system: HOP-62 NSCLC
SNB-19 CNS = system: SNB-19 CNS
IGROV1 ovarian = system: IGROV1 ovarian
NCI-H460 lung = system: NCI-H460 lung
BT-549 breast = system: BT-549 breast
MDA-MB-435 = system: MDA-MB-435
SK-MEL-2 melanoma = system: SK-MEL-2 melanoma
SK-MEL-28 melanoma = system: SK-MEL-28 melanoma
UACC-62 melanoma = system: UACC-62 melanoma
MDA-MB-231 breast = system: MDA-MB-231 breast
LOX IMVI melanoma = system: LOX IMVI melanoma
SK-MEL-5 melanoma = system: SK-MEL-5 melanoma
OVCAR-5 ovarian = system: OVCAR-5 ovarian
786-0 renal = system: 786-0 renal
ACHN renal = system: ACHN renal
HS 578T breast = system: HS 578T breast
HCT-15 colon = system: HCT-15 colon
UACC-257 melanoma = system: UACC-257 melanoma
RXF 393 renal = system: RXF 393 renal
UO-31 renal = system: UO-31 renal
SN12C renal = system: SN12C renal
COLO 205 colon = system: COLO 205 colon
SR leukemia = system: SR leukemia
OVCAR-3 ovarian = system: OVCAR-3 ovarian
OVCAR-8 ovarian = system: OVCAR-8 ovarian
MALME-3M melanoma = system: MALME-3M melanoma
T-47D breast = system: T-47D breast
HOP-92 NSCLC = system: HOP-92 NSCLC
HL-60(TB) leukemia = system: HL-60(TB) leukemia
KM12 colon = system: KM12 colon
A498 renal = system: A498 renal
SW-620 colon = system: SW-620 colon
HCT-116 colon = system: HCT-116 colon
TK-10 renal = system: TK-10 renal
CAKI-1 renal = system: CAKI-1 renal
NCI-H226 lung = system: NCI-H226 lung
NCI-H522 lung = system: NCI-H522 lung
EKVX NSCLC = system: EKVX NSCLC
SF-295 CNS = system: SF-295 CNS
DU-145 prostate = system: DU-145 prostate
OVCAR-4 ovarian = system: OVCAR-4 ovarian
HT29 colon = system: HT29 colon
PC-3 prostate = system: PC-3 prostate

Measured: TGI

Nc1c(S(=O)(=O)O)cc(S(=O)(=O)O)c2ccc(N=Nc3ccccc3)c(O)c12
> 100 µM: RPMI-8226 leukemia | SF-539 CNS | M14 melanoma | NCI/ADR-RES ovarian | SK-OV-3 ovarian | A549 NSCLC | K-562 leukemia | SNB-75 CNS | NCI-H23 lung | CCRF-CEM leukemia | MCF7 breast | MDA-N | U251 CNS | SF-268 CNS | HOP-62 NSCLC | SNB-19 CNS | IGROV1 ovarian | NCI-H460 lung | BT-549 breast | MDA-MB-435 | SK-MEL-2 melanoma | SK-MEL-28 melanoma | UACC-62 melanoma | MDA-MB-231 breast | LOX IMVI melanoma | SK-MEL-5 melanoma | OVCAR-5 ovarian | 786-0 renal | ACHN renal | HS 578T breast | HCT-15 colon | UACC-257 melanoma | RXF 393 renal | UO-31 renal | SN12C renal | COLO 205 colon | SR leukemia | OVCAR-3 ovarian | OVCAR-8 ovarian | MALME-3M melanoma | T-47D breast | HOP-92 NSCLC | HL-60(TB) leukemia | KM12 colon | A498 renal | SW-620 colon | HCT-116 colon | TK-10 renal | CAKI-1 renal | NCI-H226 lung | NCI-H522 lung | EKVX NSCLC | SF-295 CNS | DU-145 prostate | OVCAR-4 ovarian | HT29 colon | PC-3 prostate
